Experimental data as given in patent US20010039287A1, “AROMATIC SULFONE HYDROXAMIC ACID METALLOPROTEASE INHIBITOR” (priority 1997, published 2001).

Legend:
[1] = system: neovascularization of the corneal stroma; assay: In vivo angiogenesis assay (corneal micropocket, bFGF pellet); conditions: mouse corneal micropocket, 50 mpk bid po, day five, area of neovascularization vs control
Procedure: The study of angiogenesis depends on a reliable and reproducible model for the stimulation and inhibition of a neovascular response. The corneal micropocket assay provides such a model of angiogenesis in the cornea of a mouse. See, A Model of Angiogenesis in the Mouse Cornea; Kenyon, B M, et al., Investigative ophthalmology & Visual Science, July 1996, Vol. 37, No. 8.
In this assay, uniformLy sized Hydron™ pellets containing bFGF and sucralfate were prepared and surgically implanted into the stroma mouse cornea adjacent to the temporal limbus. […]
Mice were dosed on a daily basis for the duration of the assay. […] At day five, the degree of angiogenic inhibition was scored by viewing the neovascular progression with a slit lamp microscope.
The mice were anesthetized and the studied eye was once again proptosed. The maximum vessel length of neovascularization, extending from the limbal vascular plexus toward the pellet was measured. In addition, the contiguous circumferential zone of neovascularization was measured as clock hours, where 30 degrees of arc equals one clock hour. The area of angiogenesis was calculated as follows. […]
Five to six mice were utilized for each compound in each study. The studied mice were thereafter compared to control mice and the difference in the area of neovascularization was recorded as an averaged value. […]

[2] = system: PC-3 human pancreatic cancer cells (ATCC CRL 1435); assay: In vivo PC-3 tumor reduction; set-up: species or system mouse; conditions: PC-3 tumor in Balb/c nu/nu mice, day 25-30
Procedure: PC-3 human pancreatic cancer eclls (ATCC CRL 1435) were grown to 90% confluence in F12/MEM (Gibco) containing 7% FBS (Gibco). Cells were mechanically harvested using a rubber scraper, and then washed twice with cold medium. The resulting cells were resuspended in cold medium with 30% matrigel (Collaborative Research) and the cell-containing medium was maintained on ice until used.
Balb/c nu/nu mice at 7-9 weeks of age were anesthetized with avertin [2,2, 2-tribromethanol/t-amyl alcohol (1 g/l mL) diluted 1:60 into phosphate-buffered sline] and 3-5×10^6 of the above cells in 0.2 mL of medium were injected into the left flank of each mouse. Cells were injected in the morning, whereas dosing with an inhibitor began at 6 PM. The animals were gavaged BID from day zero (cell injection day) to day 25-30, at which time the animals were euthanized and tumors weighed.
Compounds were dosed at 10 mg/mL in 0.5% methylcellulose/0.1% polysorbate 80 to provide a 50 mg/kg (mpk) dose twice each day, or diluted to provide a 10 mg/kg (mpk) dose twice each day. Tumor measurements began on day 7 and continued every third or fourth day until completion of the study. Groups of ten mice were used in each study and nine to ten survived. Each group of mice so studied constitutes an “n” value of one, so that “n” values greater than one represent multiple studies whose averaged result is provided in the table. […]

[3] = system: solid tumor cancers (colorectal, pancreatic, ovarian, prostate); conditions: cited from earlier work

Compound: CNC(=O)[C@@H](NC(=O)[C@H](CC(C)C)[C@H](O)C(=O)NO)C(C)(C)C [marimastat]
- Inhibition of Angiogenesis [1]: 48 (n = 6) percent
- Average Percentage Reduction In Tumor Weight ([2]; 10 mpk BID gavage): <5 Percentage
- Average Percentage Reduction In Tumor Weight ([2]; 50 mpk BID gavage): 39 (n = 2) Percentage
- most common drug-related toxicity ([3]; clinical trials, patients): musculoskeletal pain and stiffness
- cancer-specific antigens used as surrogate markers for biological activity ([3]; patients with advanced, rapidly progressive, treatment-refractory solid tumor cancers): dose-related reduction in the rise of cancer-specific antigens
